{"source": "patent US20230348622A1", "about": "“USE OF LANCL1 AND ANTIBODIES THEREOF AS A DIAGNOSTIC AND THERAPEUTIC TARGET FOR THE MANAGEMENT AND TREATMENT OF CANCER” (The University of Hong Kong, priority 2022, published 2023)", "system": "PLC/PRF/5 and MHCC-97L cells", "assay": "Intracellular ROS level in LANCL1-KD HCC cells", "type": "cell-based, human", "conditions": "addition of oxidizing agent", "data": [{"compound": "CC(C)(C)OO", "note": "[TBHP, tert-Butyl hydroperoxide]", "values": [{"measurement": "ROS levels", "result": "significantly increased"}]}]}
